Source: patent publication US12084485B2 (Intarcia Therapeutics, Inc., priority 2020, dated 2024)

Key:
[1] = Solubility in saline or DI water at room temperature (visual inspection); type: physicochemical
[2] = Acute food intake inhibition in Long Evans rats after bolus SC dosing (BioDAQ); type: in vivo, rat; details: 30 mcg SC bolus
[3] = Stability in DMSO or DI water at 37° C. (purity by LC/MS and HPLC); type: physicochemical

| SMILES | solubility ([1]; Solubility (mg/mL) in DI water) | solubility ([1]; Solubility (mg/mL) in saline) | further results |
| --- | --- | --- | --- |
| CC[C@H](C)[C@H](NC(=O)[C@H](Cc1ccccc1)NC(=O)[C@H](CCC(N)=O)NC(=O)[C@H](CCCNC(=N)N)NC(=O)[C@@H](NC(=O)[C@H](C)NC(=O)[C@H](CCC(=O)O)NC(=O)[C@H](CCCCNC(=O)CC[C@H](NC(=O)CC[C@H](NC(=O)COCCOCCNC(=O)CCCCCCCCCCCCCCCCCCC(=O)O)C(=O)O)C(=O)O)NC(=O)[C@H](CCC(=O)O)NC(=O)[C@H](Cc1ccc(O)cc1)NC(=O)[C@H](CCC(N)=O)NC(=O)[C@H](CCCCN)NC(=O)[C@H](CO)NC(=O)[C@H](CC(C)C)NC(=O)[C@H](CC(=O)O)NC(=O)[C@H](CO)NC(=O)[C@@H](NC(=O)[C@H](Cc1ccccc1)NC(=O)[C@@H](NC(=O)CNC(=O)[C@H](CCC(=O)O)NC(=O)C(C)(C)NC(=O)[C@@H](N)Cc1c[nH]cn1)[C@@H](C)O)[C@@H](C)O)C(C)C)C(=O)N[C@@H](CO)C(=O)N[C@@H](Cc1c[nH]c2ccccc12)C(=O)N[C@@H](CC(C)C)C(=O)N[C@@H](CCCCN)C(=O)N[C@@H](CC(N)=O)C(=O)NCC(=O)NCC(=O)N1CCC[C@H]1C(=O)N[C@@H](CO)C(=O)N[C@@H](CO)C(=O)NCC(=O)N[C@@H](C)C(=O)N1CCC[C@H]1C(=O)N1CCC[C@H]1C(=O)N1CCC[C@H]1C(=O)N[C@@H](CO)C(N)=O [Compound A96] | > 128 mg/mL | > 133 mg/mL |  |
| CC[C@H](C)[C@H](NC(=O)[C@H](Cc1ccccc1)NC(=O)[C@H](CCC(=O)O)NC(=O)[C@H](CCCNC(=N)N)NC(=O)[C@H](C)NC(=O)[C@H](C)NC(=O)[C@H](CCC(=O)O)NC(=O)[C@H](CCCCNC(=O)CC[C@H](NC(=O)CC[C@H](NC(=O)COCCOCCNC(=O)CC[C@H](NC(=O)CC[C@H](NC(=O)CCCCCCCCCCCCCCCCCCC(=O)O)C(=O)O)C(=O)O)C(=O)O)C(=O)O)NC(=O)[C@H](CCC(=O)O)NC(=O)[C@H](Cc1ccc(O)cc1)NC(=O)[C@H](CCC(N)=O)NC(=O)[C@H](CCCCN)NC(=O)[C@H](CO)NC(=O)[C@H](CC(C)C)NC(=O)[C@H](CC(=O)O)NC(=O)[C@H](CO)NC(=O)[C@@H](NC(=O)[C@H](Cc1ccccc1)NC(=O)[C@@H](NC(=O)CNC(=O)[C@H](CCC(=O)O)NC(=O)C(C)(C)NC(=O)[C@@H](N)Cc1c[nH]cn1)[C@@H](C)O)[C@@H](C)O)C(=O)N[C@@H](CCC(=O)O)C(=O)N[C@@H](Cc1c[nH]c2ccccc12)C(=O)N[C@@H](CC(C)C)C(=O)N[C@@H](CCCCN)C(=O)N[C@@H](CC(N)=O)C(=O)NCC(=O)NCC(=O)N1CCC[C@H]1C(=O)N[C@@H](Cc1c[nH]cn1)C(=O)N[C@@H](CO)C(=O)NCC(=O)N[C@@H](C)C(=O)N1CCC[C@H]1C(=O)N1CCC[C@H]1C(=O)N1CCC[C@H]1C(=O)N[C@@H](CO)C(N)=O [Compound A154] | > 70 mg/mL | > 106 mg/mL |  |
| CC[C@H](C)[C@H](NC(=O)[C@H](Cc1ccccc1)NC(=O)[C@H](CCCCN)NC(=O)[C@H](CCCNC(=N)N)NC(=O)[C@H](C)NC(=O)[C@H](C)NC(=O)[C@H](CCC(=O)O)NC(=O)[C@H](CCCCNC(=O)CC[C@H](NC(=O)CC[C@H](NC(=O)COCCOCCNC(=O)CCCCCCCCCCCCCCCCCCC(=O)O)C(=O)O)C(=O)O)NC(=O)[C@H](CCC(=O)O)NC(=O)[C@H](Cc1ccc(O)cc1)NC(=O)[C@H](CCC(N)=O)NC(=O)[C@H](CCCCN)NC(=O)[C@H](CO)NC(=O)[C@H](CC(C)C)NC(=O)[C@H](CC(=O)O)NC(=O)[C@H](CO)NC(=O)[C@@H](NC(=O)[C@H](Cc1ccccc1)NC(=O)[C@@H](NC(=O)CNC(=O)[C@H](CCC(=O)O)NC(=O)C(C)(C)NC(=O)[C@@H](N)Cc1c[nH]cn1)[C@@H](C)O)[C@@H](C)O)C(=O)N[C@@H](CO)C(=O)N[C@@H](Cc1c[nH]c2ccccc12)C(=O)N[C@@H](CC(C)C)C(=O)N[C@@H](CCCCN)C(=O)N[C@@H](CC(N)=O)C(=O)NCC(=O)NCC(=O)N1CCC[C@H]1C(=O)N[C@@H](Cc1c[nH]cn1)C(=O)N[C@@H](CO)C(=O)NCC(=O)N[C@@H](C)C(=O)N1CCC[C@H]1C(=O)N1CCC[C@H]1C(=O)N1CCC[C@H]1C(=O)N[C@@H](CO)C(N)=O [Compound A62] |  |  | % Food Intake Inhibition from Vehicle, 0-24 hr ([2]; 0-24 hr): −37.1%; % Food Intake Inhibition from Vehicle, 25-48 hr ([2]; 25-48 hr): −48.8%; % Food Intake Inhibition from Vehicle, 49-72 hr ([2]; 49-72 hr): −47.4%; % Food Intake Inhibition from Vehicle, 73-96 hr ([2]; 73-96 hr): 19.5% |
| CC[C@H](C)[C@H](NC(=O)[C@H](Cc1ccccc1)NC(=O)[C@H](CCC(=O)O)NC(=O)[C@H](CCCNC(=N)N)NC(=O)[C@H](C)NC(=O)[C@H](C)NC(=O)[C@H](CCC(=O)O)NC(=O)[C@H](CCNC(=O)CC[C@H](NC(=O)CC[C@H](NC(=O)COCCOCCNC(=O)CC[C@H](NC(=O)CC[C@H](NC(=O)CCCCCCCCCCCCCCCCCCC(=O)O)C(=O)O)C(=O)O)C(=O)O)C(=O)O)NC(=O)[C@H](CCC(=O)O)NC(=O)[C@H](Cc1ccc(O)cc1)NC(=O)[C@H](CCC(N)=O)NC(=O)[C@H](CCCCN)NC(=O)[C@H](CO)NC(=O)[C@H](CC(C)C)NC(=O)[C@H](CC(=O)O)NC(=O)[C@H](CO)NC(=O)[C@@H](NC(=O)[C@H](Cc1ccccc1)NC(=O)[C@@H](NC(=O)CNC(=O)[C@H](CCC(=O)O)NC(=O)C(C)(C)NC(=O)[C@@H](N)Cc1c[nH]cn1)[C@@H](C)O)[C@@H](C)O)C(=O)N[C@@H](CCC(=O)O)C(=O)N[C@@H](Cc1c[nH]c2ccccc12)C(=O)N[C@@H](CC(C)C)C(=O)N[C@@H](CCCCN)C(=O)N[C@@H](CC(N)=O)C(=O)NCC(=O)NCC(=O)N1CCC[C@H]1C(=O)N[C@@H](CO)C(=O)N[C@@H](CO)C(=O)NCC(=O)N[C@@H](C)C(=O)N1CCC[C@H]1C(=O)N1CCC[C@H]1C(=O)N1CCC[C@H]1C(=O)N[C@@H](CO)C(N)=O [Compound A72] |  |  | Stability @ 37° C. (% purity) Day 14 [3]: 98.7%; Stability @ RT (% purity) Day 28 [3]: 95.1% |
| CC[C@H](C)[C@H](NC(=O)[C@H](Cc1ccccc1)NC(=O)[C@H](CCC(=O)O)NC(=O)[C@H](CCCNC(=N)N)NC(=O)[C@@H](NC(=O)[C@H](C)NC(=O)[C@H](CCC(=O)O)NC(=O)[C@H](CCCCNC(=O)CC[C@H](NC(=O)CC[C@H](NC(=O)COCCOCCNC(=O)CCCCCCCCCCCCCCCCCCC(=O)O)C(=O)O)C(=O)O)NC(=O)[C@H](CCC(=O)O)NC(=O)[C@H](Cc1ccc(O)cc1)NC(=O)[C@H](CCC(N)=O)NC(=O)[C@H](CCCCN)NC(=O)[C@H](CO)NC(=O)[C@H](CC(C)C)NC(=O)[C@H](CC(=O)O)NC(=O)[C@H](CO)NC(=O)[C@@H](NC(=O)[C@H](Cc1ccccc1)NC(=O)[C@@H](NC(=O)CNC(=O)[C@H](CCC(=O)O)NC(=O)C(C)(C)NC(=O)[C@@H](N)Cc1c[nH]cn1)[C@@H](C)O)[C@@H](C)O)C(C)C)C(=O)N[C@@H](CCC(=O)O)C(=O)N[C@@H](Cc1c[nH]c2ccccc12)C(=O)N[C@@H](CC(C)C)C(=O)N[C@@H](CCCCN)C(=O)N[C@@H](CC(N)=O)C(=O)NCC(=O)NCC(=O)N1CCC[C@H]1C(=O)N[C@@H](Cc1c[nH]cn1)C(=O)N[C@@H](CO)C(=O)NCC(=O)N[C@@H](C)C(=O)N1CCC[C@H]1C(=O)N1CCC[C@H]1C(=O)N1CCC[C@H]1C(=O)N[C@@H](CO)C(N)=O [Compound A152] | > 109 mg/mL | > 101 mg/mL |  |
